Results on 25 compounds are retold here after US20150072969A1, “PHENYL ALKANOIC ACID DERIVATIVES AS GPR AGONISTS” (PIRAMAL ENTERPRISES LIMITED, priority 2012, published 2015).

Bounds are passed on as bounds.

The assay deals with T1, human GPR40 (Homo sapiens, UniProt O14842).
T1 construct: expressed in transfected cells
Description: Inositol phosphate accumulation assay in FFAR1 (GPR40) CHOK1 clone. In kind it is cell-based. As to conditions: GPR40 agonist activity; intracellular inositol phosphate release in CHOK1 cells stably expressing recombinant human GPR40; 1 h incubation at 37° C. The protocol:
The inositol phosphate accumulation assay was performed to characterise the GPR40 agonist activity of the compounds of the present invention.
The assay was carried out in accordance with the method substantially as described in Diabetes, 2008, 57(8):2211-2219 and PLoS One, 2011, 6(11):e27270.
A stable FFAR1 (GPR40) CHOK1 clone was used to determine the GPR40 agonist activity of the test compounds (compounds of the present invention synthesized in the above Examples). The stable FFAR1 (GPR40) CHOK1 clone expressing recombinant human GPR40 was generated according to the procedure described herein below.
Full-length human GPR40 cDNA (Accession Number: NM_005303) was cloned into mammalian expression vector (pReceiver) and was stably transfected into (Chinese Hamster Ovary) CHOK1 cells using Amaxa technology. 2 μg of pReceiver hGPR40 were transfected into 1×10^6 CHOK1 cells in 6 well plates. The cells were split into three 100 mm cell culture plates on the second day and geneticin (800 μg/ml) was added to the cell culture on the third day. The selection medium comprising Ham's F-12 K supplemented with FBS (10%) and geneticin (800 μg/ml) was changed every three days until colonies were formed. The colonies isolated were further purified (single cell cloning) after 14 days to obtain pure isogenic single cell homogenous population of cells expressing the GPR40 receptor protein on the cell surface. GPR40 receptor expression on cell surface was measured by flow cytometry. The in-house transgenic cell line (clone) created was labeled as FFAR1 (GPR40) CHOK1 clone.
FFAR1 (GPR40) CHOK1 cells were suspended in culture medium comprising Ham's F-12 K supplemented with FBS (10%) and geneticin (800 μg/ml). Cells were seeded at a density of 2×10^4 cells per well in a 384 well tissue culture plate and cultured overnight. The medium was discarded and the cells were further resuspended in a stimulation buffer comprising HEPES (10 mM), glucose (5.5 mM), CaCl2 (1 mM), NaCl (150 mM), KCl (4.2 mM), MgCl2 (0.5 mM) and LiCl (50 mM) having a pH of 7.6. The test compounds (representative compounds of Formula (I)) 10 mM stock were prepared in DMSO and subsequently log fold dilution of the test compounds were carried out in the stimulation buffer. Various concentrations of the test compounds and the standard DMSO solution were added to each well. The plates were further incubated at 37° C., 5% CO2 incubator for 1 h. The final concentration of the test compounds in the each well varied from 1 μM to 10 μM. The DMSO concentration in the assay was 0.1% or less. After incubation, lysis reagent and anti-Tb conjugate were added to each well. The intracellular Inositol Phosphate release and accumulation in the test compounds were measured by the binding ability of the anti-Tb conjugate with the inositol phosphate inherently produced in each well as compared with the inositol phosphate coupled to dye d2 added externally to each well. The plates were then read using Perkin Elmer (Envision) plate reader and the fluorescence signal was captured. The EC50 values for the test compounds were calculated from the non linear regression sigmoidal curve graphs plotted between the concentrations of the test compounds and the fluorescence intensity.

T1 sequence (O14842 whole entry): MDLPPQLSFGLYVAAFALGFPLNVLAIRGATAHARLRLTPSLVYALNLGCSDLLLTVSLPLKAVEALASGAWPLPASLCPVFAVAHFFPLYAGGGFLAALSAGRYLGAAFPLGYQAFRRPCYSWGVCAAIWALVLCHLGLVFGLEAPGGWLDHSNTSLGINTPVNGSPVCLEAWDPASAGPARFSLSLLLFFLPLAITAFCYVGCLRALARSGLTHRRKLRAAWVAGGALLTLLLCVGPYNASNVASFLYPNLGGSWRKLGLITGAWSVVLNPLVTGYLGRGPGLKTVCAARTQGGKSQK

Consider `O=C(O)CC1(c2ccc(OCc3ccc(C(F)(F)F)c(F)c3)cc2)COC1` [Example 32, 2-(3-(4-((3-Fluoro-4-(trifluoromethyl)benzyl)oxy)phenyl)oxetan-3-yl)acetic acid], for which the EC50 is more than 500 nM.

Turning to `Cc1cc(OCCCS(C)(=O)=O)cc(C)c1-c1cccc(COc2ccc(C3(CC(=O)O)COC3)cc2F)c1` [Example 16, 2-(3-(4-((2′,6′-Dimethyl-4′-(3-(methylsulfonyl)propoxy)-[1,1′-biphenyl]-3-yl)methoxy)-3-fluorophenyl)oxetan-3-yl)acetic acid], the EC50 was more than 500 nM.

On to `O=C(O)CC1(c2ccc(OCc3ccc(-c4ccccc4)cc3)c(F)c2)COC1` [Example 14, 2-(3-(4-([1,1′-Biphenyl]-4-ylmethoxy)-3-fluorophenyl)oxetan-3-yl)acetic acid], for which the EC50 is more than 500 nM.

Consider `Cc1cc(OCC2CCOC2)cc(C)c1-c1cccc(COc2ccc(C3(CC(=O)O)COC3)cc2)c1` (stereo not shown) [Example 41, 2-(3-(4-((2′,6′-Dimethyl-4′-((tetrahydrofuran-3-yl)methoxy)-[1,1′-biphenyl]-3-yl)methoxy)phenyl)oxetan-3-yl)acetic acid], for which the EC50 was less than 100 nM.

For `CS(=O)(=O)CCCOc1ccc(-c2cccc(COc3ccc(C4(CC(=O)O)COC4)cc3)c2)cc1C(F)(F)F` [Example 87, 2-(3-(4-((4′-(3-(Methylsulfonyl)propoxy)-3′-(trifluoromethyl)-[1,1′-biphenyl]-3-yl)methoxy)phenyl)oxetan-3-yl)acetic acid], the EC50 is more than 500 nM.

On to `Cc1ccc(COc2ccc(C3(CC(=O)O)COC3)cc2)cc1C(F)(F)F` [Example 28, 2-(3-(4-((4-Methyl-3-(trifluoromethyl)benzyl)oxy)phenyl)oxetan-3-yl)acetic acid], for which the concentration for a half-maximal effect (EC50) lay within 100 to 500 nM.

On to `CC(=O)N1CC(CC(=O)O)(c2ccc(OCc3cccc(-c4c(C)cc(OCCCS(C)(=O)=O)cc4C)c3)cc2)C1` [Example 96, 2-(1-Acetyl-3-(4-((2′,6′-dimethyl-4′-(3-(methylsulfonyl)propoxy)-[1,1′-biphenyl]-3-yl)methoxy)phenyl)azetidin-3-yl)acetic acid], for which the EC50 is more than 500 nM.

Consider `N#Cc1ccccc1-c1ccc(COc2ccc(C3(CC(=O)O)COC3)cc2)cc1` [Example 6, 2-(3-(4-((2′-Cyano-[1,1′-biphenyl]-4-yl)methoxy)phenyl)oxetan-3-yl)acetic acid], for which the EC50 fell in the range of 100 to 500 nM.

Consider `COc1ccc(COc2ccc(C3(CC(=O)O)COC3)cc2)cc1C(F)(F)F` [Example 22], for which the EC50 was more than 500 nM.

Turning to `O=C(O)CC1(c2ccc(OCc3cccc(-c4ccc(OCC5CCS(=O)(=O)C5)cc4Cl)c3)cc2)COC1` (stereo not shown) [Example 68, 2-(3-(4-((2′-Chloro-4′-((1,1-dioxidotetrahydrothiophen-3-yl)methoxy)-[1,1′-biphenyl]-3-yl)methoxy)phenyl)oxetan-3-yl)acetic acid], the EC50 was less than 100 nM.

On to `O=C(O)CC1(c2ccc(OCc3cccc(-c4ccccc4)c3)cc2)COC1` [Example 4, 2-(3-(4-([1,1′-Biphenyl]-3-ylmethoxy)phenyl)oxetan-3-yl)acetic acid], for which the EC50 lay within 100 to 500 nM.

On to `O=C(O)CC1(c2ccc(OCc3ccc(-c4ccccc4)cc3)cc2)COC1` [Example 8, 2-(3-(4-([1,1′-Biphenyl]-4-ylmethoxy)phenyl)oxetan-3-yl)acetic acid], for which the concentration for a half-maximal effect (EC50) lay within 100 to 500 nM.

As to `CSc1ccc(-c2cccc(COc3ccc(C4(CC(=O)O)COC4)cc3)c2)cc1` [Example 83, 2-(3-(4-((4′-(Methylthio)-[1,1′-biphenyl]-3-yl)methoxy)phenyl)oxetan-3-yl)acetic acid], the EC50 lay in the range of 100 to 500 nM.

Take `O=C(O)CC1(c2ccc(OCc3cccc(F)c3)cc2)COC1` [Example 102, 2-(3-(4-((3-Fluorobenzyl)oxy)phenyl)oxetan-3-yl)acetic acid]: the EC50 was more than 500 nM.

As to `O=C(O)CC1(c2ccc(OCc3cccc(-c4cnc(N5CCOCC5)nc4)c3)cc2)COC1` [Example 108, 2-(3-(4-((3-(2-Morpholinopyrimidin-5-yl)benzyl)oxy)phenyl)oxetan-3-yl)acetic acid], the EC50 is less than 100 nM.

With `COc1cc(COc2ccc(C3(CC(=O)O)COC3)cc2)ccc1C(F)(F)F` [Example 30, 2-(3-(4-((3-Methoxy-4-(trifluoromethyl)benzyl)oxy)phenyl)oxetan-3-yl)acetic acid], the EC50 is more than 500 nM.

As to `O=C(O)CC1(c2ccc(OCc3cccc(-c4ccc(C(F)(F)F)cc4)c3)c(F)c2)COC1` [Example 98, 2-(3-(3-Fluoro-4-((4′-(trifluoromethyl)-[1,1′-biphenyl]-3-yl)methoxy)phenyl)oxetan-3-yl)acetic acid], the half-maximal effective concentration (EC50) was more than 500 nM.

Consider `Cc1cc(OC2CCCC2)cc(C)c1-c1cccc(COc2ccc(C3(CC(=O)O)COC3)cc2)c1` [Example 59, 2-(3-(4-((4′-(Cyclopentyloxy)-2′,6′-dimethyl-[1,1′-biphenyl]-3-yl)methoxy)phenyl)oxetan-3-yl)acetic acid], for which the EC50 is more than 500 nM.

Regarding `COc1cc(-c2cccc(COc3ccc(C4(CC(=O)O)COC4)cc3)c2)ccc1OCCCS(C)(=O)=O` [Example 81, 2-(3-(4-((3′-Methoxy-4′-(3-(methylsulfonyl)propoxy)-[1,1′-biphenyl]-3-yl)methoxy)phenyl)oxetan-3-yl)acetic acid], the EC50 was more than 500 nM.

For `Cc1cc(OCC2(CO)COC2)cc(C)c1-c1cccc(COc2ccc(C3(CC(=O)O)COC3)cc2)c1` [Example 55, 2-(3-(4-((4′-((3-(Hydroxymethyl)oxetan-3-yl)methoxy)-2′,6′-dimethyl-[1,1′-biphenyl]-3-yl)methoxy)phenyl)oxetan-3-yl)acetic acid], the EC50 is less than 100 nM.

In the case of `COc1cncc(-c2cccc(COc3ccc(C4(CC(=O)O)COC4)cc3)c2)c1` [Example 106, 2-(3-(4-((3-(5-Methoxypyridin-3-yl)benzyl)oxy)phenyl)oxetan-3-yl)acetic acid], the EC50 was more than 500 nM.

Regarding `O=C(O)CC1(c2ccc(OCc3cccc(-c4ccc(OCC5CCS(=O)(=O)CC5)cc4Cl)c3)cc2)COC1` [Example 70, 2-(3-(4-((2′-Chloro-4′-((1,1-dioxidotetrahydro-2H-thiopyran-4-yl)methoxy)-[1,1′-biphenyl]-3-yl)methoxy)phenyl)oxetan-3-yl)acetic acid], the 50% effective concentration (EC50) was less than 100 nM.

For the compound `Cc1cc(-c2cccc(COc3ccc(C4(CC(=O)O)COC4)cc3)c2)cc(C)c1OCCCS(C)(=O)=O` [Example 79, 2-(3-(4-((3′,5′-Dimethyl-4′-(3-(methylsulfonyl)propoxy)-[1,1′-biphenyl]-3-yl)methoxy)phenyl)oxetan-3-yl)acetic acid], the EC50 is 100 to 500 nM.

As to `Cc1cc(OCCCS(C)(=O)=O)cc(C)c1-c1cccc(COc2ccc(C3(CC(=O)O)CN(S(C)(=O)=O)C3)cc2)c1` [Example 94, 2-(3-(4-((2′,6′-Dimethyl-4′-(3-(methylsulfonyl)propoxy)-[1,1′-biphenyl]-3-yl)methoxy)phenyl)-1-(methylsulfonyl)azetidin-3-yl)acetic acid], the concentration giving a half-maximal response (EC50) is more than 500 nM.

For the compound `O=C(O)CC1(c2ccc(OCc3cccc(-c4ccc(OCC5CCOCC5)cc4Cl)c3)cc2)COC1` [Example 72, 2-(3-(4-((2′-Chloro-4′-((tetrahydro-2H-pyran-4-yl)methoxy)-[1,1′-biphenyl]-3-yl)methoxy)phenyl)oxetan-3-yl)acetic acid], the EC50 was less than 100 nM.

By EC50 is commonly meant the concentration that produces a half-maximal response.
